14 molecules from patent US8669378B2, “Process for synthesizing epicconone analogs” (Universite de Rouen, priority 2009, dated 2014) can be followed below.

What all share (type): physicochemical
Data set [1] is described as follows: Absorbance of the adducts with butylamine in acetonitrile. Conditions: Bioconjugated molecule (BuNH2) in CH3CN; for λ UV (nm), second maximum: longer-wavelength absorption maximum, used for excitation; for λ UV (nm), first maximum: shorter-wavelength absorption maximum. The protocol:
(§1) Apparatus: • Acetonitrile: VWR HPLC quality • Micropipette: 5 μl, 10 μl, 200 μl, 1000 μl, • Eppendorf: Safe lock tube PCR • UV cuvette: Varian-Quartz 10 mm thick • Fluorescence cuvette: Hellma-Quartz 10 mm thick • Vortex: Bender & Hobein-Genie 2 • Centrifuge: Baky Bug • Absorbance spectrophotometer: Varian-Cary 50 scan • Fluorescence spectrophotometer: Varian-Cary Eclipse • Thermostated bath: Varian-Cary single cell peltier accessory Stock Solution:
(§2) Approximately exactly 1 to 2 mg of compound Ia-Io are weighed out in a 1.5 mL Eppendorf tube. The stock solutions are then prepared by adding exactly 1 mL of acetonitrile and the Eppendorf tubes are then stored protected from light.
30 μl of stock solution are placed in a 1.5 mL Eppendorf tube. At room temperature, 10 μl (or 30 μl in the case of Ik) of a 0.15 M solution of butylamine/acetonitrile are added and the medium is stirred by vortex and then centrifuged. After diluting to 1 mL by adding 960 μl of acetonitrile (or 940 μl in the case of Ik), the clear solution is transferred into a UV cuvette and then made up to 2 mL with acetonitrile. The analysis is then performed after producing a “blank” spectrum with a pure acetonitrile solution.

The nature of data set [2]: Fluorescence of the adducts with butylamine in acetonitrile. The arrangement: Δ Stokes: unit not given here. Conditions: Bioconjugated molecule (BuNH2) in CH3CN; for Δ Stokes: emission minus excitation wavelength; for λ fluo (λ excitation) (nm): excitation at maximum-absorption wavelength; for Intensity normalized to 50 μM: fluorescence intensity. The protocol: as §1, §2
Two protocols were implemented for the fluorescence tests. • For compounds Ii-Ik: 125 μL of the preceding solution (absorbance solution) are diluted to 1.25 mL by adding 1125 μl of acetonitrile to a fluorescence cuvette. The analysis is then performed on the fluorescence spectrophotometer by excitation at the respective maximum-absorption wavelengths. • For compounds Ia-Ih and Il-Io: 1250 μl of the preceding solution (absorbance) are placed in a fluorescence cuvette. The analysis is then performed on the fluorescence spectrophotometer by excitation at the respective maximum-absorption wavelengths.

Data set [3] is described as follows: Photobleaching of stained standard proteins in gel under UV transilluminator. Conditions: protein-stained gel, first-order exponential decay fit, deduced from FIG. 1. The protocol: The compounds were dissolved at 10 mg/mL in DMSO. The stock solutions obtained were diluted to 1 mg/mL in water and divided into 100 μL aliquots for storage. All the products and aliquots were stored at −80° C.
Standard proteins (SDS labeling kit-low molecular weight sold by GE, 17-0446-01) were diluted in an LDS buffer (250 μL Invitrogen 4×LDS buffer, 100 μL of 1 M DDT, 650 μL of water) to create serial dilutions ranging from 128 ng/STI band to 125 pg/STI band.
5 μL of each protein solution were loaded onto NuPAGE® Novex® 12% bis-tris gels (1.0 mm thick, 12 wells, Invitrogen NP0342BOX). The gels were subjected to a current of 150 V for approximately 65 minutes using MES buffer (50 mM MES, 50 mM tris, 1 mM EDTA, 0.1% SDS, pH 7.3) so that the buffer front arrives just up to the gel. After eluting the dye, the gels were fixed for 1 to 17 hours (100 mL of fixing solution with 15% EtOH (v/v) and 1% citric acid) in individual lanes. The fixing solution used was replaced with fresh solution one hour after staining. The gels were stained for 1 hour in 50 mL of sodium borate buffer at 100 mM (pH 10.9) containing either […] of LavaPurple gel dye (Fluorotechnics; LP-011005) or one of the test compounds (50 μL for a 1 mg/mL solution). The gels were treated with 100 mL of 15% ethanol and then washed with 100 mL of fixing solution for 30 minutes.
Imaging was performed using a Typhoon Trio imager (excitation: 532 nm, emission filter: 610BP30, 540 PMT, resolution: 100 μm) using a normal sensitivity. The recorded image corresponds to the scan at time zero. The gels were then placed in a UV transilluminator for 60, 146, 240, 330, 630 and 990 seconds (total exposure time), a Typhoon scanner image being recorded between each exposure. The volumes of the bands were analyzed using the Image-Quant TL software, and all the band volumes were normalized with phosphorylase B. The photobleaching was analyzed by graphically representing the band volumes as a function of the exposure time (GraphPad Prism v4 software) and by fitting the curve to a first-order exponential decay to determine a pseudofirst-order rate constant.
FIG. 1 represents the decrease of the normalized residual signal of compounds (Ii), (Ij), (Ik), (In) and (Io) according to the invention and of epicocconone.
From this FIGURE, the half-life times of the compounds may be deduced: […]

Regarding `CC1CC2=CC3=C(C(=O)c4ccccc4)C(=O)OC3(C)C(=O)C2=CO1` (centres unmarked) [Ia, 3-benzoyl-6,9a-dimethyl-5,6-dihydro-9aH-furo[3,2-g]isochromene-2,9-dione], in data set [1], the “λ UV (nm), second maximum” value worked out at 472 nm and the “λ UV (nm), first maximum” value was found to be 351 nm. In addition, in data set [2], the “Δ Stokes” value was 113, the “λ fluo (λ excitation) (nm)” value came out at 585 nm and the “Intensity normalized to 50 μM” value was determined as 98.

Take `COc1ccc(C(=O)C2=C3C=C4CC(C)OC=C4C(=O)C3(C)OC2=O)cc1` (centres unmarked) [Ib, 3-(4-methoxybenzoyl)-6,9a-dimethyl-5,6-dihydro-9aH-furo[3,2-g]isochromene-2,9-dione]: in data set [1], the “λ UV (nm), second maximum” value is on record as 452 nm and the “λ UV (nm), first maximum” value was 351 nm. In addition, in data set [2], the “Δ Stokes” value is on record as 134, the “λ fluo (λ excitation) (nm)” value stood at 586 nm and the “Intensity normalized to 50 μM” value is 205.

With `CC1CC2=CC3=C(C(=O)c4ccco4)C(=O)OC3(C)C(=O)C2=CO1` (centres unmarked) [Ic, 3-(furan-2-carbonyl)-6,9a-dimethyl-5,6-dihydro-9aH-furo[3,2-g]isochromene-2,9-dione], in data set [1], the “λ UV (nm), second maximum” value was found to be 465 nm and the “λ UV (nm), first maximum” value was determined as 352 nm. Also, in data set [2], the “Δ Stokes” value is recorded as 128, the “λ fluo (λ excitation) (nm)” value turned out to be 593 nm and the “Intensity normalized to 50 μM” value worked out at 193.

Turning to `CC1CC2=CC3=C(C(=O)c4ccc5ccccc5c4)C(=O)OC3(C)C(=O)C2=CO1` (centres unmarked) [Id, 3-(2-naphthoyl)-6,9a-dimethyl-5,6-dihydro-9aH-furo[3,2-g]isochromene-2,9-dione], in data set [1], the “λ UV (nm), second maximum” value was determined as 464 nm and the “λ UV (nm), first maximum” value was 351 nm. Besides, in data set [2], the “Δ Stokes” value was 106, the “λ fluo (λ excitation) (nm)” value is recorded as 570 nm and the “Intensity normalized to 50 μM” value was 173.

With `COCCOCCOc1ccc(C(=O)C2=C3C=C4CC(C)OC=C4C(=O)C3(C)OC2=O)cc1` (centres unmarked) [Ie, 3-(4-(2-(2-methoxyethoxy)ethoxy)benzoyl)-6,9a-dimethyl-5,6-dihydro-9aH-furo[3,2-g]isochromene-2,9-dione], in data set [1], the “λ UV (nm), second maximum” value was determined as 453 nm and the “λ UV (nm), first maximum” value amounted to 349 nm. Besides, in data set [2], the “Δ Stokes” value is recorded as 137, the “λ fluo (λ excitation) (nm)” value was determined as 590 nm and the “Intensity normalized to 50 μM” value was determined as 120.

With `COc1ccccc1C(=O)C1=C2C=C3CC(C)OC=C3C(=O)C2(C)OC1=O` (centres unmarked) [If, 3-(2-methoxybenzoyl)-6,9a-dimethyl-5,6-dihydro-9aH-furo[3,2-g]isochromene-2,9-dione], in data set [1], the “λ UV (nm), second maximum” value was 469 nm and the “λ UV (nm), first maximum” value is reported as 351 nm. Besides, in data set [2], the “Δ Stokes” value worked out at 120, the “λ fluo (λ excitation) (nm)” value is listed as 589 nm and the “Intensity normalized to 50 μM” value amounted to 147.

As for `CC1CC2=CC3=C(C(=O)c4ccccc4O)C(=O)OC3(C)C(=O)C2=CO1` (centres unmarked) [Ig, 3-(2-hydroxybenzoyl)-6,9a-dimethyl-5,6-dihydro-9aH-furo[3,2-g]isochromene-2,9-dione], in data set [1], the “λ UV (nm), second maximum” value is recorded as 463 nm and the “λ UV (nm), first maximum” value was found to be 350 nm. In data set [2], the “Δ Stokes” value was found to be 134, the “λ fluo (λ excitation) (nm)” value is 597 nm and the “Intensity normalized to 50 μM” value amounted to 32.

Consider `COc1ccc(C(=O)C2=C3C=C4CC(C)(C)OC=C4C(=O)C3(C)OC2=O)cc1` (centres unmarked) [Ih, 3-(4-methoxybenzoyl)-6,6,9a-trimethyl-5,6-dihydro-9aH-furo[3,2-g]isochromene-2,9-dione], for which, in data set [1], the “λ UV (nm), second maximum” value amounted to 460 nm and the “λ UV (nm), first maximum” value stood at 354 nm. For the same molecule, in data set [2], the “Δ Stokes” value was determined as 130, the “λ fluo (λ excitation) (nm)” value was determined as 590 nm and the “Intensity normalized to 50 μM” value is reported as 155.

For the molecule `COc1ccc(/C(O)=C/C(=O)C2=C3C=C4CC(C)OC=C4C(=O)C3(C)OC2=O)cc1` (centres unmarked) [Ii, (Z)-3-(3-hydroxy-3-(4-methoxyphenyl)acryloyl)-6,9a-dimethyl-5,6-dihydro-9aH-furo[3,2-g]isochromene-2,9-dione], in data set [3], the “Half-life time” value came out at 18.3 min. Further, in data set [1], the “λ UV (nm), second maximum” value amounted to 497 nm and the “λ UV (nm), first maximum” value came to 366 nm. Moreover, in data set [2], the “Δ Stokes” value is 99, the “λ fluo (λ excitation) (nm)” value came to 596 nm and the “Intensity normalized to 50 μM” value is listed as 3020.

On to `COc1ccc(/C(O)=C/C(=O)C2=C3C=C4CC(C)(C)OC=C4C(=O)C3(C)OC2=O)cc1` (centres unmarked) [Ij, (Z)-3-(3-hydroxy-3-(4-methoxyphenyl)acryloyl)-6,6,9a-trimethyl-5,6-dihydro-9aH-furo[3,2-g]isochromene-2,9-dione], for which, in data set [3], the “Half-life time” value was 6.6 min. In data set [1], the “λ UV (nm), second maximum” value was 505 nm and the “λ UV (nm), first maximum” value was 366 nm. Moreover, in data set [2], the “Δ Stokes” value came out at 98, the “λ fluo (λ excitation) (nm)” value turned out to be 603 nm and the “Intensity normalized to 50 μM” value is listed as 3988.

For the molecule `CC1(C)CC2=CC3=C(C(=O)/C=C(\O)c4ccccc4)C(=O)OC3(C)C(=O)C2=CO1` (centres unmarked) [Ik, (Z)-3-(3-hydroxy-3-phenylacryloyl)-6,6,9a-trimethyl-5,6-dihydro-9aH-furo[3,2-g]isochromene-2,9-dione], the “Half-life time” value in data set [3] worked out at 22.4 min. In data set [1], the “λ UV (nm), second maximum” value is 512 nm and the “λ UV (nm), first maximum” value stood at 365 nm. In data set [2], the “Δ Stokes” value is listed as 94, the “λ fluo (λ excitation) (nm)” value was determined as 606 nm and the “Intensity normalized to 50 μM” value amounted to 4157.

Regarding `COc1ccc(C(=O)C(C)C(=O)C2=C3C=C4CC(C)(C)OC=C4C(=O)C3(C)OC2=O)cc1` (centres unmarked) [Il, 3-(3-(4-methoxyphenyl)-2-methyl-3-oxopropanoyl)-6,6,9a-trimethyl-5,6-dihydro-9aH-furo[3,2-g]isochromene-2,9-dione], in data set [1], the “λ UV (nm), second maximum” value is reported as 498 nm and the “λ UV (nm), first maximum” value turned out to be 350 nm. Also, in data set [2], the “Δ Stokes” value was found to be 90, the “λ fluo (λ excitation) (nm)” value is reported as 588 nm and the “Intensity normalized to 50 μM” value was found to be 264.

For `CC(C(=O)C1=C2C=C3CC(C)(C)OC=C3C(=O)C2(C)OC1=O)C(=O)c1ccccc1` (centres unmarked) [Im, 6,6,9a-trimethyl-3-(2-methyl-3-oxo-3-phenylpropanoyl)-5,6-dihydro-9aH-furo[3,2-g]isochromene-2,9-dione], in data set [1], the “λ UV (nm), second maximum” value is on record as 489 nm and the “λ UV (nm), first maximum” value is 351 nm. Moreover, in data set [2], the “Δ Stokes” value turned out to be 102, the “λ fluo (λ excitation) (nm)” value was found to be 591 nm and the “Intensity normalized to 50 μM” value turned out to be 202.

For `CC1(C)CC2=CC3=C(/C(O)=C/C(=O)c4ccc(Cl)nc4)C(=O)OC3(C)C(=O)C2=CO1` (centres unmarked) [In, 3-[3-(6-chloro-pyridin-3-yl)-1-hydroxy-3-oxopropenyl]-6,6,9a-trimethyl-5,6-dihydro-9aH-furo[3,2-g]isochromene-2,9-dione], in data set [3], the “Half-life time” value is 33.1 min. For the same molecule, in data set [1], the “λ UV (nm), second maximum” value is listed as 525 nm and the “λ UV (nm), first maximum” value worked out at 363 nm. In data set [2], the “Δ Stokes” value is listed as 87, the “λ fluo (λ excitation) (nm)” value is reported as 612 nm and the “Intensity normalized to 50 μM” value is 2764.
